# Experimental data published in US20230123334A1, “AMINO LIPID COMPOUND, PREPARATION METHOD THEREFOR, AND APPLICATION THEREOF” (SHENZHEN SHENXIN BIOTECHNOLOGY CO., LTD., priority 2020, published 2023).
# Test system: HEK293 cells
# Test: Preliminary screening as mRNA vectors, EGFP mRNA transfection of HEK293 cells
# Format: cell-based
# Details: EGFP mRNA 50 ng per well, 96-well plates; percentage of GFP fluorescent cells relative to total number of cells (Hoechst)
# Method in brief: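 HEK293 cells in DMEM plus 10% FBS transfected in 96-well format with 50 ng EGFP mRNA per well; Lipofectamine2000 served as positive control. Read-out is the percentage of GFP-fluorescent cells among total cells, counted by Hoechst nuclear stain.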
row,SMILES,Absolute mRNA transfection efficiency in HEK293 cells [%]
1,CCCCCCCCCCCCCCCCSc1nc(NCCCCCCCCC)nc(NCCN(CC)CC)n1 [Compound D7S16N9],9.0
2,CCCCCCCCCCCCCCCCSc1nc(NCCCCCCCCCCC)nc(NCCN(CC)CC)n1 [Compound D7S16N11],8.3
3,CCCCCCCCCCCCCCCCSc1nc(NCCCCCCCCCCCC)nc(NCCN(CC)CC)n1 [Compound D7S16N12],1.3
4,CCCCCCCCCCCCCCCCSc1nc(NCCCCCCCCCCCCC)nc(NCCN(CC)CC)n1 [Compound D7S16N13],2.9
5,CCCCCCCCCCCCCCCCSc1nc(NCCCCCCCCCCCCCCC)nc(NCCN(CC)CC)n1 [Compound D7S16N15],1.1
6,CCCCCCCCCCCCCCCCNc1nc(NCCN(CC)CC)nc(SCCCCCCCCCCCCCCCC)n1 [Compound D7S16N16],1.6
7,CCCCCCCCCCCCCCCCCCNc1nc(NCCN(CC)CC)nc(SCCCCCCCCCCCCCCCC)n1 [Compound D7S16N18],1.5
8,CCCCCCCCCCCCCCCCCCSc1nc(NCCCCCC)nc(NCCN(CC)CC)n1 [Compound D7S18N6],19.5
9,CCCCCCCCCCCCCCCCCCSc1nc(NCCCCCCC)nc(NCCN(CC)CC)n1 [Compound D7S18N7],6.5
10,CCCCCCCCCCCCCCCCCCSc1nc(NCCCCCCCC)nc(NCCN(CC)CC)n1 [Compound D7S18N8],9.8
11,CCCCCCCCCCCCCCCCCCSc1nc(NCCCCCCCCC)nc(NCCN(CC)CC)n1 [Compound D7S18N9],1.9
12,CCCCCCCCCCCCCCCCCCSc1nc(NCCCCCCCCCCC)nc(NCCN(CC)CC)n1 [Compound D7S18N11],10.7
13,CCCCCCCCCCCCCCCCCCSc1nc(NCCCCCCCCCCCC)nc(NCCN(CC)CC)n1 [Compound D7S18N12],0.3
14,CCCCCCCCCCCCCCCCCCSc1nc(NCCCCCCCCCCCCC)nc(NCCN(CC)CC)n1 [Compound D7S18N13],1.5
15,CCCCCCCCCCCCCCCCCCSc1nc(NCCCCCCCCCCCCCCC)nc(NCCN(CC)CC)n1 [Compound D7S18N15],0.3
16,CCCCCCCCCCCCCCCCCCSc1nc(NCCCCCCCCCCCCCCCC)nc(NCCN(CC)CC)n1 [Compound D7S18N16],0.3
17,CCCCCCCCCCCCCCCCCCNc1nc(NCCN(CC)CC)nc(SCCCCCCCCCCCCCCCCCC)n1 [Compound D7S18N18],0.0
18,CCCCCCNc1nc(NCCCN2CCOCC2)nc(SCCCCCC)n1 [Compound D8S6N6],0.0
19,CCCCCCCNc1nc(NCCCN2CCOCC2)nc(SCCCCCC)n1 [Compound D8S6N7],0.4
20,CCCCCCCCNc1nc(NCCCN2CCOCC2)nc(SCCCCCC)n1 [Compound D8S6N8],0.2
21,CCCCCCCCCNc1nc(NCCCN2CCOCC2)nc(SCCCCCC)n1 [Compound D8S6N9],1.2

row,SMILES,Absolute mRNA transfection efficiency in HEK293 cells [%]
1,CCCCCCCCCCCNc1nc(NCCCN2CCOCC2)nc(SCCCCCC)n1 [Compound D8S6N11],1.1
2,CCCCCCCCCCCCNc1nc(NCCCN2CCOCC2)nc(SCCCCCC)n1 [Compound D8S6N12],2.0
3,CCCCCCCCCCCCCNc1nc(NCCCN2CCOCC2)nc(SCCCCCC)n1 [Compound D8S6N13],0.0
4,CCCCCCCCCCCCCCCNc1nc(NCCCN2CCOCC2)nc(SCCCCCC)n1 [Compound D8S6N15],0.1
5,CCCCCCCCCCCCCCCCNc1nc(NCCCN2CCOCC2)nc(SCCCCCC)n1 [Compound D8S6N16],0.6
6,CCCCCCCCCCCCCCCCCCNc1nc(NCCCN2CCOCC2)nc(SCCCCCC)n1 [Compound D8S6N18],0.7
7,CCCCCCSc1nc(NCCCN2CCOCC2)nc(SCCCCCC)n1 [Compound D8S6S6],0.0
8,CCCCCCCSc1nc(NCCCN2CCOCC2)nc(SCCCCCC)n1 [Compound D8S6S7],1.5
9,CCCCCCCCSc1nc(NCCCN2CCOCC2)nc(SCCCCCC)n1 [Compound D8S6S8],0.2
10,CCCCCCCCCSc1nc(NCCCN2CCOCC2)nc(SCCCCCC)n1 [Compound D8S6S9],5.0
11,CCCCCCCCCCSc1nc(NCCCN2CCOCC2)nc(SCCCCCC)n1 [Compound D8S6S10],4.2
12,CCCCCCCCCCCSc1nc(NCCCN2CCOCC2)nc(SCCCCCC)n1 [Compound D8S6S11],1.5
13,CCCCCCCCCCCCSc1nc(NCCCN2CCOCC2)nc(SCCCCCC)n1 [Compound D8S6S12],11.1
14,CCCCCCCCCCCCCCSc1nc(NCCCN2CCOCC2)nc(SCCCCCC)n1 [Compound D8S6S14],6.8
15,CCCCCCCCCCCCCCCSc1nc(NCCCN2CCOCC2)nc(SCCCCCC)n1 [Compound D8S6S15],2.8
16,CCCCCCCCCCCCCCCCSc1nc(NCCCN2CCOCC2)nc(SCCCCCC)n1 [Compound D8S6S16],43.1
17,CCCCCCCCCCCCCCCCCCSc1nc(NCCCN2CCOCC2)nc(SCCCCCC)n1 [Compound D8S6S18],12.6
18,CCCCCCCSc1nc(NCCCCCC)nc(NCCCN2CCOCC2)n1 [Compound D8S7N6],1.8
19,CCCCCCCNc1nc(NCCCN2CCOCC2)nc(SCCCCCCC)n1 [Compound D8S7N7],1.4
20,CCCCCCCCNc1nc(NCCCN2CCOCC2)nc(SCCCCCCC)n1 [Compound D8S7N8],1.8
21,CCCCCCCCCNc1nc(NCCCN2CCOCC2)nc(SCCCCCCC)n1 [Compound D8S7N9],10.6

row,SMILES,Absolute mRNA transfection efficiency in HEK293 cells [%]
1,CCCCCCCCCCCNc1nc(NCCCN2CCOCC2)nc(SCCCCCCC)n1 [Compound D8S7N11],20.1
2,CCCCCCCCCCCCNc1nc(NCCCN2CCOCC2)nc(SCCCCCCC)n1 [Compound D8S7N12],2.3
3,CCCCCCCCCCCCCNc1nc(NCCCN2CCOCC2)nc(SCCCCCCC)n1 [Compound D8S7N13],5.8
4,CCCCCCCCCCCCCCCNc1nc(NCCCN2CCOCC2)nc(SCCCCCCC)n1 [Compound D8S7N15],2.8
5,CCCCCCCCCCCCCCCCNc1nc(NCCCN2CCOCC2)nc(SCCCCCCC)n1 [Compound D8S7N16],1.2
6,CCCCCCCCCCCCCCCCCCNc1nc(NCCCN2CCOCC2)nc(SCCCCCCC)n1 [Compound D8S7N18],3.0
7,CCCCCCCSc1nc(NCCCN2CCOCC2)nc(SCCCCCCC)n1 [Compound D8S7S7],5.0
8,CCCCCCCCSc1nc(NCCCN2CCOCC2)nc(SCCCCCCC)n1 [Compound D8S7S8],5.0
9,CCCCCCCCCSc1nc(NCCCN2CCOCC2)nc(SCCCCCCC)n1 [Compound D8S7S9],18.6
10,CCCCCCCCCCSc1nc(NCCCN2CCOCC2)nc(SCCCCCCC)n1 [Compound D8S7S10],11.4
11,CCCCCCCCCCCSc1nc(NCCCN2CCOCC2)nc(SCCCCCCC)n1 [Compound D8S7S11],23.1
12,CCCCCCCCCCCCSc1nc(NCCCN2CCOCC2)nc(SCCCCCCC)n1 [Compound D8S7S12],20.7
13,CCCCCCCCCCCCCCSc1nc(NCCCN2CCOCC2)nc(SCCCCCCC)n1 [Compound D8S7S14],21.2
14,CCCCCCCCCCCCCCCSc1nc(NCCCN2CCOCC2)nc(SCCCCCCC)n1 [Compound D8S7S15],25.2
15,CCCCCCCCCCCCCCCCSc1nc(NCCCN2CCOCC2)nc(SCCCCCCC)n1 [Compound D8S7S16],22.7
16,CCCCCCCCCCCCCCCCCCSc1nc(NCCCN2CCOCC2)nc(SCCCCCCC)n1 [Compound D8S7S18],26.7
17,CCCCCCCCSc1nc(NCCCCCC)nc(NCCCN2CCOCC2)n1 [Compound D8S8N6],1.0
18,CCCCCCCCSc1nc(NCCCCCCC)nc(NCCCN2CCOCC2)n1 [Compound D8S8N7],0.1
19,CCCCCCCCNc1nc(NCCCN2CCOCC2)nc(SCCCCCCCC)n1 [Compound D8S8N8],1.3
20,CCCCCCCCCNc1nc(NCCCN2CCOCC2)nc(SCCCCCCCC)n1 [Compound D8S8N9],3.5
21,CCCCCCCCCCCNc1nc(NCCCN2CCOCC2)nc(SCCCCCCCC)n1 [Compound D8S8N11],7.9
